Entries after “also recorded” stand apart in the source; their conditions may differ.
How the values were obtained:
hairless mice = test: Rotarod performance study in hairless mice; type: in vivo; settings: 5% w/w HD topical
Procedure: FIG. 7 is an illustration of a Rota Rod apparatus in the present disclosure. Once the mice were trained, the rod was rotated at a constant speed of 20 rpm. Then the mice were placed on the rotating rod and length of time they could stay on the rotating rod was measured in seconds.
The Rotarod study was to investigate the skeletal muscle relaxant effects of HD, specifically its impact on motor coordination and balance in hairless mice. The study was structured to assess both the kinetics of HD's effect over time and its efficacy in inducing muscle relaxation. Efficacy of HD was determined post-treatment at intervals of 15, 30, 60, 75, 90 minutes, and another to evaluate the efficacy, particularly noting the peak effect at 30 minutes post-application. Control and Treatment Groups: Each stage included a control group receiving vehicle (Aloe Vera Gel) and a test group treated with HD, 5% w/w HD (0.5 g) in the vehicle (9.5 g Aloe Vera Gel), prepared right before the study. The topical treatment was applied to the thighs of all four limbs for each mouse.

hind limb muscle = test: Rat hind limb muscle twitch study; type: in vivo, Sprague-Dawley rats
Procedure: FIG. 1 is a schematic diagram of a validated muscle twitch experimental set-up in the present disclosure. Here anesthetized Sprague-Dawley rats were prepared for muscle contraction assessment of their hindlimbs. The hind limbs were shaved and secured at the knee and ankle joints to prevent movement. The distal tendon of the targeted muscle was connected to a high-sensitivity force transducer to measure contractile force with precision. Electrical stimulation was delivered via electrodes positioned on the sciatic nerve to evoke muscle contractions. Vehicle (control study) or 5% w/w of HD was topically applied to the dermal area corresponding to the muscle group under study, ensuring proximity for local diffusion and effect.
A study was performed to evaluate the effects of HD on muscle contractility using a validated in vivo rat model. The experimental setup was meticulously designed to measure the contractile force of the hind limb muscle in response to electrical stimulation of the sciatic nerve, providing a quantitative assessment of muscle relaxation and contraction dynamics in the presence of HD. Anesthetized Sprague-Dawley rats were used for this study, ensuring minimal variability in response to HD application. Hind limbs were shaved and then immobilized at the knee and ankle joints to isolate the effect of the targeted muscle group. The distal tendon of the targeted muscle was connected to a high-sensitivity force transducer for accurate measurement of contractile force. An electrical stimulation was applied via electrodes strategically placed on the sciatic nerve, designed to evoke muscle contractions with controlled frequency to determine amplitude, and duration parameters. A specific concentration of 5% w/w of HD in lubricating lotion, prepared on the same day, was topically applied to the skin overlaying the muscle group under study and the control group received a vehicle (lubricating lotion) treatment under identical conditions.

[1] = test system: mouse extensor digitorum longus muscles; test: Isolated mouse muscle contraction study
Procedure: FIG. 4 is a schematic diagram of a validated isolated mouse muscle contraction study. Muscles were anchored at one end to the chamber floor and connected at the other end to a force transducer. After establishing a baseline response to the electrical field stimulation, HD was added to the buffer at concentrations ranging from 0.01% w/w to 1% w/w, and the impact on muscle contractile force was recorded over time at the frequency of 150 Hz. Additionally, muscles were subjected to varying frequencies of electrical stimulation to evaluate the frequency-dependent effects of HD.
This subsequent study was aimed to elucidate the specific effects of HD on isolated muscle tissue from mice, to quantify its potential use as a muscle relaxant. The study's design allowed for the controlled assessment of muscle contractility in a physiological buffer, minimizing external variables present in in vivo models. Muscle Isolation: The mouse extensor digitorum longus muscles were carefully dissected and mounted in a tissue bath super-fused with oxygenated physiological buffer, ensuring tissue viability throughout the experiment (FIG. 4). Baseline Measurement: Initial contractile responses were established via electrical stimulation at various frequencies, setting a comparative baseline for subsequent HD application effects. HD Application: Differing concentrations of HD (ranging from 0.01% to 1%) were introduced to the buffer. The muscle's contractile force (amplitude, which is the maximum contractile force) was determined to assess HD's concentration-dependent effects at a fixed frequency of 150 Hz (FIG. 6). Stimulation Frequency Adjustment: To explore the frequency-dependent nature of HD's action, muscles underwent varied frequencies of electrical stimulation at a fixed concentration of 0.5% of HD. This protocol aimed to simulate conditions of sporadic muscle spasms.

CCCCC(O)CO (stereo not shown) [HD, 1,2-hexanediol]
recovery of mice from the muscle relaxant effect (safety) (hairless mice): all mice recovered | time spent on Rota Rod (hairless mice; 30 and 60 minutes post treatment, 20 rpm, vehicle 60 seconds): significant decrease | recovery from the muscle relaxant effect (hairless mice; by 75 minutes): recovery trend | time of most notable muscle relaxant activity post-treatment (hairless mice; preliminary experiments (data not shown)): 30 min | duration of muscle contraction (hind limb muscle; 5% w/w HD topical vs vehicle, p<0.05): statistically significant reduction | mean percentage decline in force output from initial peak contraction (hind limb muscle; 5% w/w HD topical, compared to vehicle group): quantitatively significant | ability to maintain tetanic contraction throughout the stimulus period (hind limb muscle; 5% w/w HD topical, electrical stimulation at 150 Hz): unable to maintain tetanic contraction; also recorded: failing to maintain tetanic tension | inhibitory effect on muscle contraction ([1]; 0.01% HD in buffer, 150 Hz): No significant inhibitory effect; also recorded: minimal effects | reduction in contractile force ([1]; 0.1% HD in buffer, 150 Hz, vs vehicle controls): ~44% | frequency-dependent decrease in torque generation (force-frequency relationship) ([1]; 0.5% HD, varied stimulus frequencies, vs vehicle, n=5): inhibition is more complete at higher frequencies of stimulation; also recorded: more significant inhibitory effect
